Results published in PMC3272328 (2011).
Positions count from the first letter of the chain named. pKi: −log10 of the molar value.

Legend:
Type in all cases: biochemical
[1] = biological target: T1, soluble guanylyl cyclase (Homo sapiens, UniProt Q02108+Q02153); assay: cGMP ELISA enzyme assay
T1 sequence (Q02153 1-619): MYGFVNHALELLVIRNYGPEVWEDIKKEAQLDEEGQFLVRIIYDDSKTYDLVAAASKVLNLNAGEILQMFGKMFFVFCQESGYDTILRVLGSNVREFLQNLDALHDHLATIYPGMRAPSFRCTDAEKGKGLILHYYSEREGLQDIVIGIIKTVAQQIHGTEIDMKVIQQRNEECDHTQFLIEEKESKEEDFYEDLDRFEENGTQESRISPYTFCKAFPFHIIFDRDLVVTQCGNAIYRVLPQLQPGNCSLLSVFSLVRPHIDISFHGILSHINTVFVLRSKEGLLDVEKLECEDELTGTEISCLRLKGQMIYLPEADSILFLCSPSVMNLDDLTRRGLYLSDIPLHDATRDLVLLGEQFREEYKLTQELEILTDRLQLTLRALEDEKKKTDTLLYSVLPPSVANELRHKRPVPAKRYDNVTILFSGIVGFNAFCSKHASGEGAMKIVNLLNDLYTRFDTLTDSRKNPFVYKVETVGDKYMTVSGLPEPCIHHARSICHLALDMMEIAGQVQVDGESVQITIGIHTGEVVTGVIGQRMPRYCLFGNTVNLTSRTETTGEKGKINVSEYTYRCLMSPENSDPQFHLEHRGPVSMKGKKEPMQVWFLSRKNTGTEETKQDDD
T1 sequence (Q02108 1-690): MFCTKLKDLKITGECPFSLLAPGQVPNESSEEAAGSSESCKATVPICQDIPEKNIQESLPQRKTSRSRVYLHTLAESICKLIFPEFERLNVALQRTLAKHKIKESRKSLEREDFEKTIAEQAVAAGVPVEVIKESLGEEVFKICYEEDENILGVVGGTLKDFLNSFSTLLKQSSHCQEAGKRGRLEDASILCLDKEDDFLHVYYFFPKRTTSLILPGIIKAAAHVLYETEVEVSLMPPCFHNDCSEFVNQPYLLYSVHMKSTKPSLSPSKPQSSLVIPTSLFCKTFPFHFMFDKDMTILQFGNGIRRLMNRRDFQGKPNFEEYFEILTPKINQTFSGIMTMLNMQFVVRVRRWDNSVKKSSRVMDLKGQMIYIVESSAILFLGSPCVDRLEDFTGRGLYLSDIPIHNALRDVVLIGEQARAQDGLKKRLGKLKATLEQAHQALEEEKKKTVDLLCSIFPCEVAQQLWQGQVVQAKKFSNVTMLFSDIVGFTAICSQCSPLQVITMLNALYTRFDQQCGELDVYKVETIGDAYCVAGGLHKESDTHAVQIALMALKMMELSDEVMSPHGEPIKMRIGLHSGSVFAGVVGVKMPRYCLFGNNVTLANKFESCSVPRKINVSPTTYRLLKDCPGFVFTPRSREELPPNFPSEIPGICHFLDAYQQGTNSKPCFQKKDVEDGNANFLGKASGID

[2] = biological target: T2, soluble guanylyl cyclase (Bos taurus, UniProt P16068+P19687); assay: cGMP ELISA enzyme assay
T2 sequence (P16068 1-619): T1 sequence (Q02153 1-619) with E126D, L290S, S574T, K615E, D618E, D619N
T2 sequence (P19687 1-691): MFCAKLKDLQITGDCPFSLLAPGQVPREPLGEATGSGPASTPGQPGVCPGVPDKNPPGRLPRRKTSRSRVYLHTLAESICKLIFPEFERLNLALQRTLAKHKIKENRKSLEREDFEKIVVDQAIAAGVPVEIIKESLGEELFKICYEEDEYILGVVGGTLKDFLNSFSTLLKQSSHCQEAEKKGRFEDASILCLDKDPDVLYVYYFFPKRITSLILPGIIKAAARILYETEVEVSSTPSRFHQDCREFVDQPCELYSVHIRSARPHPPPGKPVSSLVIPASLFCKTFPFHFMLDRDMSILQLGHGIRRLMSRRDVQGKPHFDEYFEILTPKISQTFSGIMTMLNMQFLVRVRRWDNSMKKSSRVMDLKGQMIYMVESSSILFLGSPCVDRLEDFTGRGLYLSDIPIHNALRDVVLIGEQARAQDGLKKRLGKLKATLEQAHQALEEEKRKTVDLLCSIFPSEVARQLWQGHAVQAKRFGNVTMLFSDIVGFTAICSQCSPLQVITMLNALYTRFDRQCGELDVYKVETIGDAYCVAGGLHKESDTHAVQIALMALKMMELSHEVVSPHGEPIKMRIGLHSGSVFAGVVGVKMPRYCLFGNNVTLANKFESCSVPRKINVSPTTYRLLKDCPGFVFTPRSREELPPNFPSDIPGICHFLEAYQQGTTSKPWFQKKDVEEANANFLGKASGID

[3] = biological target: T2, soluble guanylyl cyclase; assay: cGMP production by ELISA at varied GTP

pKi [2]	SMILES	cGMP ELISA enzyme assay [1]	cGMP production by ELISA at varied GTP; Lineweaver-Burk plot [3]
4.26	Nc1nc(=O)c2ncn([C@H]3C=C[C@@H](COP(=O)(O)OP(=O)(O)OP(=O)(O)O)C3)c2[nH]1 [carbovir triphosphate]	able to inhibit the activity of purified soluble guanylyl cyclase (both purified native bovine enzyme and recombinant human enzyme)	–
–	Nc1nc2c(ncn2[C@@H]2O[C@H](COP(=O)(O)OP(=O)(O)OP(=O)(O)O)[C@@H](O)[C@H]2O)c(=O)[nH]1 [guanosine triphosphate]	–	we measured the amount of inhibition while varying the concentrations of GTP and carbovir triphosphate
